# pIC50: −log10 of the molar value.
# Legend:
# [1] = target: T1, High affinity nerve growth factor receptor (Homo sapiens, UniProt P04629); test: Inhibition of recombinant His-tagged human TRKA (441 to 796 residues) expressed in baculovirus expression system at 20 uM using 5-FAM-EEPLYWSFPAKKK-CONH2 as substrate preincubated for 1 hr followed by substrate addition in presence of ATP by mobility shift assay relative to control
# Target sequence in this assay (P04629 33-796 limits assumed): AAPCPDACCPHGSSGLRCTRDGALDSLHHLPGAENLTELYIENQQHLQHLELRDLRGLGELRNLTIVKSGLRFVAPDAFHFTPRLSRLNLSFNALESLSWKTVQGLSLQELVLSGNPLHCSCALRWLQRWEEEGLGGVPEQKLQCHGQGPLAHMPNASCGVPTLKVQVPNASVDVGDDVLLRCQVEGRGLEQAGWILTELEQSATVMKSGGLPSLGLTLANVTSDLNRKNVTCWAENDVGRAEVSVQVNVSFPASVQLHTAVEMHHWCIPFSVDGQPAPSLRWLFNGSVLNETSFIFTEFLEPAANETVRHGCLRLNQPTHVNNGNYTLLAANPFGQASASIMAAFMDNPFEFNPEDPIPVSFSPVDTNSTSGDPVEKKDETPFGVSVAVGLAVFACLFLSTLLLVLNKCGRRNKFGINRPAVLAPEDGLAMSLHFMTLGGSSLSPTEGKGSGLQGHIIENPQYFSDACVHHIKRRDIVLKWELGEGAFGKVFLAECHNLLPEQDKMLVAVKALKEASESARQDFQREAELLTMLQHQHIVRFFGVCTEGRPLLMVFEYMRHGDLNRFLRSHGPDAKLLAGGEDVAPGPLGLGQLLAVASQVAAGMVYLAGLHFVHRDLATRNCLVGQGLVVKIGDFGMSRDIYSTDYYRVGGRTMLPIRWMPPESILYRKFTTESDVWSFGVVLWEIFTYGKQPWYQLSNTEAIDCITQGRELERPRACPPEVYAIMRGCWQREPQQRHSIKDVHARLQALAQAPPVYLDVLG
# KM12 [2] = test: Cytotoxicity against human KM12 cells assessed as reduction in cell viability incubated for 72 hrs by resazurin based assay; type: functional; details: KM12, 72 h
# RPMI-8226 = test: Antiproliferative activity against human RPMI-8226 cells assessed as cell growth at 10 uM relative to control; type: functional; details: read-out: Activity
# T47D = test: Antiproliferative activity against human T47D cells assessed as cell growth at 10 uM relative to control; type: functional; details: read-out: Activity
# SNB-19 = test: Antiproliferative activity against human SNB-19 cells assessed as cell growth at 10 uM relative to control; type: functional; details: read-out: Activity
# OVCAR-3 = test: Antiproliferative activity against human OVCAR-3 cells assessed as cell growth at 10 uM relative to control; type: functional; details: read-out: Activity
# NCI-H226 = test: Antiproliferative activity against human NCI-H226 cells assessed as cell growth at 10 uM relative to control; type: functional; details: read-out: Activity
# RXF 393 = test: Antiproliferative activity against human RXF 393 cells assessed as cell growth at 10 uM relative to control; type: functional; details: read-out: Activity
# NCI-H322M = test: Antiproliferative activity against human NCI-H322M cells assessed as cell growth at 10 uM relative to control; type: functional; details: read-out: Activity
# UO-31 = test: Antiproliferative activity against human UO-31 cells assessed as cell growth at 10 uM relative to control; type: functional; details: read-out: Activity
# HOP-92 = test: Antiproliferative activity against human HOP-92 cells assessed as cell growth at 10 uM relative to control; type: functional; details: read-out: Activity
# 786-0 = test: Antiproliferative activity against human 786-0 cells assessed as cell growth at 10 uM relative to control; type: functional; details: read-out: Activity
# KM12 [3] = test: Antiproliferative activity against human KM12 cells assessed as cell growth at 10 uM relative to control; type: functional; details: read-out: Activity
# HL-60(TB) = test: Antiproliferative activity against human HL-60(TB) cells assessed as cell growth at 10 uM relative to control; type: functional; details: read-out: Activity
# ACHN = test: Antiproliferative activity against human ACHN cells assessed as cell growth at 10 uM relative to control; type: functional; details: read-out: Activity
# MDA-MB-468 = test: Antiproliferative activity against human MDA-MB-468 cells assessed as cell growth at 10 uM relative to control; type: functional; details: read-out: Activity
# UACC-62 = test: Antiproliferative activity against human UACC-62 cells assessed as cell growth at 10 uM relative to control; type: functional; details: read-out: Activity
# TK-10 = test: Antiproliferative activity against human TK-10 cells assessed as cell growth at 10 uM relative to control; type: functional; details: read-out: Activity
# OVCAR-8 = test: Antiproliferative activity against human OVCAR-8 cells assessed as cell growth at 10 uM relative to control; type: functional; details: read-out: Activity
# HCT-15 = test: Antiproliferative activity against human HCT-15 cells assessed as cell growth at 10 uM relative to control; type: functional; details: read-out: Activity
# SK-MEL-28 = test: Antiproliferative activity against human SK-MEL-28 cells assessed as cell growth at 10 uM relative to control; type: functional; details: read-out: Activity
# SK-OV-3 = test: Antiproliferative activity against human SK-OV-3 cells assessed as cell growth at 10 uM relative to control; type: functional; details: read-out: Activity
# HOP-62 = test: Antiproliferative activity against human HOP-62 cells assessed as cell growth at 10 uM relative to control; type: functional; details: read-out: Activity
# MDA-MB-435 = test: Antiproliferative activity against human MDA-MB-435 cells assessed as cell growth at 10 uM relative to control; type: functional; details: read-out: Activity
# SN12C = test: Antiproliferative activity against human SN12C cells assessed as cell growth at 10 uM relative to control; type: functional; details: read-out: Activity
# Malme-3M = test: Antiproliferative activity against human MALME-3M cells assessed as cell growth at 10 uM relative to control; type: functional; details: read-out: Activity
# CAKI-1 = test: Antiproliferative activity against human CAKI-1 cells assessed as cell growth at 10 uM relative to control; type: functional; details: read-out: Activity
# SW-620 = test: Antiproliferative activity against human SW-620 cells assessed as cell growth at 10 uM relative to control; type: functional; details: read-out: Activity
# NCI-H460 = test: Antiproliferative activity against human NCI-H460 cells assessed as cell growth at 10 uM relative to control; type: functional; details: read-out: Activity
# SR = test: Antiproliferative activity against human SR cells assessed as cell growth at 10 uM relative to control; type: functional; details: read-out: Activity
# NCI/ADR-RES = test: Antiproliferative activity against human NCI/ADR-RES cells assessed as cell growth at 10 uM relative to control; type: functional; details: read-out: Activity
# MDA-MB-231 = test: Antiproliferative activity against human MDA-MB-231 cells assessed as cell growth at 10 uM relative to control; type: functional; details: read-out: Activity
# NCI-H522 = test: Antiproliferative activity against human NCI-H522 cells assessed as cell growth at 10 uM relative to control; type: functional; details: read-out: Activity
# EKVX = test: Antiproliferative activity against human EKVX cells assessed as cell growth at 10 uM relative to control; type: functional; details: read-out: Activity
# MCF7 = test: Antiproliferative activity against human MCF7 cells assessed as cell growth at 10 uM relative to control; type: functional; details: read-out: Activity
# SK-MEL-5 = test: Antiproliferative activity against human SK-MEL-5 cells assessed as cell growth at 10 uM relative to control; type: functional; details: read-out: Activity
# NCI-H23 = test: Antiproliferative activity against human NCI-H23 cells assessed as cell growth at 10 uM relative to control; type: functional; details: read-out: Activity
# A549 = test: Antiproliferative activity against human A549 cells assessed as cell growth at 10 uM relative to control; type: functional; details: read-out: Activity
# M14 = test: Antiproliferative activity against human M14 cells assessed as cell growth at 10 uM relative to control; type: functional; details: read-out: Activity
# SF-539 = test: Antiproliferative activity against human SF-539 cells assessed as cell growth at 10 uM relative to control; type: functional; details: read-out: Activity
# DU-145 = test: Antiproliferative activity against human DU-145 cells assessed as cell growth at 10 uM relative to control; type: functional; details: read-out: Activity
# BT-549 = test: Antiproliferative activity against human BT-549 cells assessed as cell growth at 10 uM relative to control; type: functional; details: read-out: Activity
# OVCAR-4 = test: Antiproliferative activity against human OVCAR-4 cells assessed as cell growth at 10 uM relative to control; type: functional; details: read-out: Activity
# PC-3 = test: Antiproliferative activity against human PC-3 cells assessed as cell growth at 10 uM relative to control; type: functional; details: read-out: Activity
# MOLT-4 = test: Antiproliferative activity against human MOLT-4 cells assessed as cell growth at 10 uM relative to control; type: functional; details: read-out: Activity
# SNB-75 = test: Antiproliferative activity against human SNB-75 cells assessed as cell growth at 10 uM relative to control; type: functional; details: read-out: Activity
# HCC 2998 = test: Antiproliferative activity against human HCC 2998 cells assessed as cell growth at 10 uM relative to control; type: functional; details: read-out: Activity
# OVCAR-5 = test: Antiproliferative activity against human OVCAR-5 cells assessed as cell growth at 10 uM relative to control; type: functional; details: read-out: Activity
# SF-295 = test: Antiproliferative activity against human SF-295 cells assessed as cell growth at 10 uM relative to control; type: functional; details: read-out: Activity
# COLO 205 = test: Antiproliferative activity against human COLO 205 cells assessed as cell growth at 10 uM relative to control; type: functional; details: read-out: Activity
# IGROV-1 = test: Antiproliferative activity against human IGROV-1 cells assessed as cell growth at 10 uM relative to control; type: functional; details: read-out: Activity
# LOX IMVI = test: Antiproliferative activity against human LOX IMVI cells assessed as cell growth at 10 uM relative to control; type: functional; details: read-out: Activity
# SK-MEL-2 = test: Antiproliferative activity against human SK-MEL-2 cells assessed as cell growth at 10 uM relative to control; type: functional; details: read-out: Activity
# UACC-257 = test: Antiproliferative activity against human UACC-257 cells assessed as cell growth at 10 uM relative to control; type: functional; details: read-out: Activity
# A498 = test: Antiproliferative activity against human A498 cells assessed as cell growth at 10 uM relative to control; type: functional; details: read-out: Activity
# CCRF-CEM = test: Antiproliferative activity against human CCRF-CEM cells assessed as cell growth at 10 uM relative to control; type: functional; details: read-out: Activity
# HT-29 = test: Antiproliferative activity against human HT-29 cells assessed as cell growth at 10 uM relative to control; type: functional; details: read-out: Activity
# K562 = test: Antiproliferative activity against human K562 cells assessed as cell growth at 10 uM relative to control; type: functional; details: read-out: Activity
# HCT-116 = test: Antiproliferative activity against human HCT-116 cells assessed as cell growth at 10 uM relative to control; type: functional; details: read-out: Activity
# SF-268 = test: Antiproliferative activity against human SF-268 cells assessed as cell growth at 10 uM relative to control; type: functional; details: read-out: Activity
# Hs-578T = test: Antiproliferative activity against human Hs-578T cells assessed as cell growth at 10 uM relative to control; type: functional; details: read-out: Activity
# U-251 = test: Antiproliferative activity against human U-251 cells assessed as cell growth at 10 uM relative to control; type: functional; details: read-out: Activity
# [4] = Permeability of compound in human brain like endothelial cells BBB model at 10 uM after 120 mins by LC-MS analysis; type: ADME, cell-based; details: read-out: permeability (converted)
# [5] = target: T1, High affinity nerve growth factor receptor; test: Inhibition of recombinant His-tagged human TRKA (441 to 796 residues) expressed in baculovirus expression system using 5-FAM-EEPLYWSFPAKKK-CONH2 as substrate preincubated for 1 hr followed by substrate addition in presence of ATP by mobility shift assay
# Target sequence in this assay (P04629 whole entry, the tested form may be a part): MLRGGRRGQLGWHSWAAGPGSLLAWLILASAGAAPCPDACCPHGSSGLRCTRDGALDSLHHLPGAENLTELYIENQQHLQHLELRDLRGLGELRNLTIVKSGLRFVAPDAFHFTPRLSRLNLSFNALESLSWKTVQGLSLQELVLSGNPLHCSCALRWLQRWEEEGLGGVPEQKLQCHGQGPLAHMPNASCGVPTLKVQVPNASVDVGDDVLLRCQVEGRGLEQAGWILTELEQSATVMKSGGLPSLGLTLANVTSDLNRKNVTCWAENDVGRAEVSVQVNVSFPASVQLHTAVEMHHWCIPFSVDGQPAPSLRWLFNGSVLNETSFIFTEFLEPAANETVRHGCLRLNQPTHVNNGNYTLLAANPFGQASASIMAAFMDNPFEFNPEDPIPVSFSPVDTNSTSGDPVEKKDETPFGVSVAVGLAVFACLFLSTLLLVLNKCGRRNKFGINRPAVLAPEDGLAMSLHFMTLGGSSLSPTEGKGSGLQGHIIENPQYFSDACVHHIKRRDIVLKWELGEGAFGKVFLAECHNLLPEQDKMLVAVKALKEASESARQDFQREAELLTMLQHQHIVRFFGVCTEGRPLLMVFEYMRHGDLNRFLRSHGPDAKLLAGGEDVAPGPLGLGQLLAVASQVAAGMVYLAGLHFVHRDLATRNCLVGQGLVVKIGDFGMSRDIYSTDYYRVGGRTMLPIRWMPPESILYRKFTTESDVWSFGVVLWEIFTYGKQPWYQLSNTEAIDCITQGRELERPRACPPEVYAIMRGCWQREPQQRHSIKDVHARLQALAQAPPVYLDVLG
structure (smiles),measurement,setting,value
O=C(c1ccc(Nc2ncnc3ccsc23)cc1)N1CCCCC1,inhibition,[1],16.5%
same,pIC50,KM12 [2],3.82
Cn1cc(-c2cc3ncnc(Nc4ccc(CC(=O)Nc5ccc(C(C)(C)C)cc5)cc4)c3s2)cn1,growth at 10 µM,RPMI-8226,103%
same,growth at 10 µM,T47D,93.7%
same,growth at 10 µM,SNB-19,101%
same,growth at 10 µM,OVCAR-3,110%
same,growth at 10 µM,NCI-H226,95.5%
same,growth at 10 µM,RXF 393,93.2%
same,growth at 10 µM,NCI-H322M,99.7%
same,growth at 10 µM,UO-31,102%
same,growth at 10 µM,HOP-92,132%
same,growth at 10 µM,786-0,101%
same,growth at 10 µM,KM12 [3],22.4%
same,growth at 10 µM,HL-60(TB),97.8%
same,growth at 10 µM,ACHN,84.3%
same,growth at 10 µM,MDA-MB-468,90.9%
same,growth at 10 µM,UACC-62,101%
same,growth at 10 µM,TK-10,98.6%
same,growth at 10 µM,OVCAR-8,103%
same,growth at 10 µM,HCT-15,102%
same,growth at 10 µM,SK-MEL-28,107%
same,growth at 10 µM,SK-OV-3,120%
same,growth at 10 µM,HOP-62,125%
same,growth at 10 µM,MDA-MB-435,104%
same,growth at 10 µM,SN12C,98.5%
same,growth at 10 µM,Malme-3M,102%
same,growth at 10 µM,CAKI-1,86%
same,growth at 10 µM,SW-620,119%
same,growth at 10 µM,NCI-H460,99%
same,growth at 10 µM,SR,102%
same,growth at 10 µM,NCI/ADR-RES,108%
same,growth at 10 µM,MDA-MB-231,105%
same,growth at 10 µM,NCI-H522,93%
same,growth at 10 µM,EKVX,93.2%
same,growth at 10 µM,MCF7,96.2%
same,growth at 10 µM,SK-MEL-5,98.3%
same,growth at 10 µM,NCI-H23,106%
same,growth at 10 µM,A549,98.3%
same,growth at 10 µM,M14,102%
same,growth at 10 µM,SF-539,66.9%
same,growth at 10 µM,DU-145,98.2%
same,growth at 10 µM,BT-549,107%
same,growth at 10 µM,OVCAR-4,98.6%
same,growth at 10 µM,PC-3,99.1%
same,growth at 10 µM,MOLT-4,97.5%
same,growth at 10 µM,SNB-75,75%
same,growth at 10 µM,HCC 2998,136%
same,growth at 10 µM,OVCAR-5,118%
same,growth at 10 µM,SF-295,117%
same,growth at 10 µM,COLO 205,120%
same,growth at 10 µM,IGROV-1,98.2%
same,growth at 10 µM,LOX IMVI,106%
same,growth at 10 µM,SK-MEL-2,105%
same,growth at 10 µM,UACC-257,110%
same,growth at 10 µM,A498,88.1%
same,growth at 10 µM,CCRF-CEM,100%
same,growth at 10 µM,HT-29,102%
same,growth at 10 µM,K562,91.5%
same,growth at 10 µM,HCT-116,104%
same,growth at 10 µM,SF-268,101%
same,growth at 10 µM,Hs-578T,88.8%
same,growth at 10 µM,U-251,88.3%
CN1CCN(c2ccc(C(=O)Nc3n[nH]c4ccc(Cc5cc(F)cc(F)c5)cc34)c(NC3CCOCC3)c2)CC1 [ENTRECTINIB],pIC50,KM12 [2],7.92
same,"Papp at 2 h, 10 µM",[4],17 ×10⁻⁶ cm/s
CS(=O)(=O)c1ccc(-c2cc3ncnc(Nc4ccc(CC(=O)Nc5ccc(F)c(Cl)c5)cc4)c3s2)cc1,pIC50,[5],3.70

# From ChEMBL document CHEMBL4813963, “Discovery of pyrazolo-thieno[3,2-d]pyrimidinylamino-phenyl acetamides as type-II pan-tropomyosin receptor kinase (TRK) inhibitors: Design, synthesis, and biological evaluation” (Eur J Med Chem, 2021)
